Experimental data: ChEMBL document CHEMBL4270599, “Synthesis of a 3'-C-ethynyl-β-d-ribofuranose purine nucleoside library: Discovery of C7-deazapurine analogs as potent antiproliferative nucleosides” (Eur J Med Chem, 2018)

How the values were obtained:
Format in all cases: functional
HL-60(TB) = assay: Cytotoxicity against human HL-60(TB) cells after 48 hrs by SRB assay; details: HL-60, 48 h
NCI-H460 [1] = assay: Cytotoxicity against human NCI-H460 cells after 48 hrs by SRB assay; details: NCI-H460, 48 h
SNB-19 = assay: Cytotoxicity against human SNB19 cells after 48 hrs by SRB assay; details: SNB-19, 48 h
U-251 [2] = assay: Cytotoxicity against human U251 cells after 48 hrs by SRB assay; details: U-251, 48 h
MDA-MB-435 = assay: Cytotoxicity against human MDA-MB-435 cells after 48 hrs by SRB assay; details: MDA-MB-435, 48 h
SK-MEL-5 [3] = assay: Cytotoxicity against human SK-MEL-5 cells after 48 hrs by SRB assay; details: SK-MEL-5, 48 h
IGROV-1 = assay: Cytotoxicity against human IGROV1 cells after 48 hrs by SRB assay; details: IGROV-1, 48 h
OVCAR-4 [4] = assay: Cytotoxicity against human OVCAR4 cells after 48 hrs by SRB assay; details: OVCAR-4, 48 h
SK-OV-3 [5] = assay: Cytotoxicity against human SKOV3 cells after 48 hrs by SRB assay; details: SK-OV-3, 48 h
MDA-MB-468 = assay: Cytotoxicity against human MDA-MB-468 cells after 48 hrs by SRB assay; details: MDA-MB-468, 48 h
CCRF-CEM = assay: Growth inhibition of human CCRF-CEM cells assessed as cell growth at 10^-8 M incubated for 48 hrs by sulforhodamine B assay relative to control; details: read-out: Activity
SR = assay: Growth inhibition of human SR cells assessed as cell growth at 10^-8 M incubated for 48 hrs by sulforhodamine B assay relative to control; details: read-out: Activity
Malme-3M = assay: Growth inhibition of human MALME-3M cells assessed as cell growth at 10^-8 M incubated for 48 hrs by sulforhodamine B assay relative to control; details: read-out: Activity
OVCAR-4 [6] = assay: Growth inhibition of human OVCAR4 cells assessed as cell growth at 10^-8 M incubated for 48 hrs by sulforhodamine B assay relative to control; details: OVCAR-4, 48 h, read-out: Activity
PC-3 = assay: Growth inhibition of human PC3 cells assessed as cell growth at 10^-8 M incubated for 48 hrs by sulforhodamine B assay relative to control; details: PC-3, 48 h, read-out: Activity
K562 [7] = assay: Growth inhibition of human K562 cells assessed as cell growth at 10^-7 M incubated for 48 hrs by sulforhodamine B assay relative to control; details: K562, 48 h, read-out: Activity
NCI-H226 [8] = assay: Growth inhibition of human NCI-H226 cells assessed as cell growth at 10^-7 M incubated for 48 hrs by sulforhodamine B assay relative to control; details: NCI-H226, 48 h, read-out: Activity
NCI-H322M = assay: Growth inhibition of human NCI-H322M cells assessed as cell growth at 10^-7 M incubated for 48 hrs by sulforhodamine B assay relative to control; details: read-out: Activity
SNB-75 = assay: Growth inhibition of human SNB75 cells assessed as cell growth at 10^-7 M incubated for 48 hrs by sulforhodamine B assay relative to control; details: SNB-75, 48 h, read-out: Activity
A498 = assay: Growth inhibition of human A498 cells assessed as cell growth at 10^-7 M incubated for 48 hrs by sulforhodamine B assay relative to control; details: A498, 48 h, read-out: Activity
BT-549 = assay: Growth inhibition of human BT549 cells assessed as cell growth at 10^-7 M incubated for 48 hrs by sulforhodamine B assay relative to control; details: BT-549, 48 h, read-out: Activity
NCI-H460 [9] = assay: Growth inhibition of human NCI-H460 cells assessed as cell growth at 10^-6 M incubated for 48 hrs by sulforhodamine B assay relative to control; details: NCI-H460, 48 h, read-out: Activity
SK-MEL-5 [10] = assay: Growth inhibition of human SK-MEL-5 cells assessed as cell growth at 10^-6 M incubated for 48 hrs by sulforhodamine B assay relative to control; details: SK-MEL-5, 48 h, read-out: Activity
DU-145 = assay: Growth inhibition of human DU145 cells assessed as cell growth at 10^-6 M incubated for 48 hrs by sulforhodamine B assay relative to control; details: DU-145, 48 h, read-out: Activity
MCF7 = assay: Growth inhibition of human MCF7 cells assessed as cell growth at 10^-6 M incubated for 48 hrs by sulforhodamine B assay relative to control; details: MCF7, 48 h, read-out: Activity
K562 [11] = assay: Growth inhibition of human K562 cells assessed as cell growth at 10^-5 M incubated for 48 hrs by sulforhodamine B assay relative to control; details: K562, 48 h, read-out: Activity
SW-620 = assay: Growth inhibition of human SW620 cells assessed as cell growth at 10^-5 M incubated for 48 hrs by sulforhodamine B assay relative to control; details: SW-620, 48 h, read-out: Activity
SK-MEL-28 = assay: Growth inhibition of human SK-MEL-28 cells assessed as cell growth at 10^-5 M incubated for 48 hrs by sulforhodamine B assay relative to control; details: SK-MEL-28, 48 h, read-out: Activity
NCI-H226 [12] = assay: Growth inhibition of human NCI-H226 cells assessed as cell growth at 10^-4 M incubated for 48 hrs by sulforhodamine B assay relative to control; details: NCI-H226, 48 h, read-out: Activity
U-251 [13] = assay: Growth inhibition of human U251 cells assessed as cell growth at 10^-4 M incubated for 48 hrs by sulforhodamine B assay relative to control; details: U-251, 48 h, read-out: Activity
SK-OV-3 [14] = assay: Growth inhibition of human SKOV3 cells assessed as cell growth at 10^-4 M incubated for 48 hrs by sulforhodamine B assay relative to control; details: SK-OV-3, 48 h, read-out: Activity
[15] = read-out: pLC50 (the source's name) (converted)
[16] = read-out: LC50 (the source's name)

C#C[C@@]1(O)[C@@H](CO)O[C@@H](n2cc(F)c3c(N)ncnc32)[C@@H]1O
TGI (HL-60(TB); read-out: TGI): 3.53 µM | GI50 (HL-60(TB); read-out: pGI50 (converted)): 0.437 µM | CC50 (HL-60(TB); [15]): > 100 µM | TGI (HL-60(TB); read-out: pTGI (converted)): 3.55 µM | CC50 (NCI-H460 [1]; [16]): > 100 µM | TGI (NCI-H460 [1]; read-out: TGI): 10.2 µM | GI50 (NCI-H460 [1]; read-out: pGI50 (converted)): 0.229 µM | TGI (NCI-H460 [1]; read-out: pTGI (converted)): 10.2 µM | CC50 (SNB-19; [16]): > 100 µM | TGI (SNB-19; read-out: TGI): 13.7 µM | GI50 (SNB-19; read-out: pGI50 (converted)): 0.525 µM | TGI (SNB-19; read-out: pTGI (converted)): 13.8 µM | GI50 (U-251 [2]; read-out: GI50): 0.631 µM | TGI (U-251 [2]; read-out: TGI): 11.6 µM | GI50 (U-251 [2]; read-out: pGI50 (converted)): 0.631 µM | CC50 (U-251 [2]; [15]): > 100 µM | TGI (U-251 [2]; read-out: pTGI (converted)): 11.7 µM | TGI (MDA-MB-435; read-out: TGI): 3.26 µM | GI50 (MDA-MB-435; read-out: pGI50 (converted)): 0.417 µM | CC50 (MDA-MB-435; [15]): 45.7 µM | TGI (MDA-MB-435; read-out: pTGI (converted)): 3.24 µM | TGI (SK-MEL-5 [3]; read-out: TGI): 1.33 µM | GI50 (SK-MEL-5 [3]; read-out: pGI50 (converted)): 0.269 µM | CC50 (SK-MEL-5 [3]; [15]): 4.17 µM | TGI (SK-MEL-5 [3]; read-out: pTGI (converted)): 1.35 µM | CC50 (IGROV-1; [16]): > 100 µM | TGI (IGROV-1; read-out: TGI): 1.42 µM | GI50 (IGROV-1; read-out: pGI50 (converted)): 0.324 µM | TGI (IGROV-1; read-out: pTGI (converted)): 1.41 µM | TGI (OVCAR-4 [4]; read-out: TGI): 8.67 µM | GI50 (OVCAR-4 [4]; read-out: pGI50 (converted)): 1 µM | CC50 (OVCAR-4 [4]; [15]): > 100 µM | TGI (OVCAR-4 [4]; read-out: pTGI (converted)): 8.71 µM | CC50 (SK-OV-3 [5]; [16]): > 100 µM | TGI (SK-OV-3 [5]; read-out: TGI): 2.09 µM | GI50 (SK-OV-3 [5]; read-out: pGI50 (converted)): 0.288 µM | TGI (SK-OV-3 [5]; read-out: pTGI (converted)): 2.09 µM | TGI (MDA-MB-468; read-out: TGI): 1.53 µM | GI50 (MDA-MB-468; read-out: pGI50 (converted)): 0.302 µM | CC50 (MDA-MB-468; [15]): 7.94 µM | TGI (MDA-MB-468; read-out: pTGI (converted)): 1.55 µM | growth at 0.01 µM (CCRF-CEM): 95% | growth at 0.01 µM (SR): 101% | growth at 0.01 µM (Malme-3M): 103% | growth at 0.01 µM (OVCAR-4 [6]): 100% | growth at 0.01 µM (PC-3): 92% | growth at 0.1 µM (K562 [7]): 78% | growth at 0.1 µM (NCI-H226 [8]): 95% | growth at 0.1 µM (NCI-H322M): 94% | growth at 0.1 µM (SNB-75): 107% | growth at 0.1 µM (A498): 95% | growth at 0.1 µM (BT-549): 107% | growth at 1 µM (NCI-H460 [9]): 5% | growth at 1 µM (SK-MEL-5 [10]): 13% | growth at 1 µM (DU-145): 16% | growth at 1 µM (MCF7): -8% | growth at 10 µM (K562 [11]): 8% | growth at 10 µM (SW-620): -5% | growth at 10 µM (SK-MEL-28): 37% | growth at 100 µM (NCI-H226 [12]): -45% | growth at 100 µM (U-251 [13]): -18% | growth at 100 µM (SK-OV-3 [14]): -30%
